Experimental findings from patent US10231954B2, “Neurodegenerative therapies” (LYTIX BIOPHARMA AS, priority 2014, dated 2019) are described below.

Assay type in all cases: biochemical
The target of one test is T1, MKK6 (Homo sapiens, UniProt P52564).
T1 sequence (P52564 1-334): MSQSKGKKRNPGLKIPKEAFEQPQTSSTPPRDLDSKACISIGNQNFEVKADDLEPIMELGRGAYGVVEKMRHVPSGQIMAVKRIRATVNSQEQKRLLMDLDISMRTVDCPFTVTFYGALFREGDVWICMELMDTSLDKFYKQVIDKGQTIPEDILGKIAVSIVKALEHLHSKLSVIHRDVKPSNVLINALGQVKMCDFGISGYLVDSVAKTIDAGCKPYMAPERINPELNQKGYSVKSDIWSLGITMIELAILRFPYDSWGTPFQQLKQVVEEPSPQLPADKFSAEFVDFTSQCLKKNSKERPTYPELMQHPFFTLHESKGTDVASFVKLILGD
The experiment in a line: Kinase profiling MKK6. As to conditions: for remaining activity at 100 µM: read-out: residual kinase activity, MKK6. The source says: (§1) Any value less that 25 is considered to be highly significant inhibition.

A further test addresses RSK2 (Homo sapiens, UniProt P51812). As to the kind of experiment: Kinase profiling RSK2. As to conditions: for remaining activity at 100 µM: read-out: residual kinase activity, RSK2.
From the text: as §1

For another test, the target named is S6K1 (Homo sapiens, UniProt P23443). As to the kind of experiment: Kinase profiling S6K1. The following applies: for remaining activity at 100 µM: read-out: residual kinase activity, S6K1.
Sequence of S6K1 (P23443 whole entry, species assumed): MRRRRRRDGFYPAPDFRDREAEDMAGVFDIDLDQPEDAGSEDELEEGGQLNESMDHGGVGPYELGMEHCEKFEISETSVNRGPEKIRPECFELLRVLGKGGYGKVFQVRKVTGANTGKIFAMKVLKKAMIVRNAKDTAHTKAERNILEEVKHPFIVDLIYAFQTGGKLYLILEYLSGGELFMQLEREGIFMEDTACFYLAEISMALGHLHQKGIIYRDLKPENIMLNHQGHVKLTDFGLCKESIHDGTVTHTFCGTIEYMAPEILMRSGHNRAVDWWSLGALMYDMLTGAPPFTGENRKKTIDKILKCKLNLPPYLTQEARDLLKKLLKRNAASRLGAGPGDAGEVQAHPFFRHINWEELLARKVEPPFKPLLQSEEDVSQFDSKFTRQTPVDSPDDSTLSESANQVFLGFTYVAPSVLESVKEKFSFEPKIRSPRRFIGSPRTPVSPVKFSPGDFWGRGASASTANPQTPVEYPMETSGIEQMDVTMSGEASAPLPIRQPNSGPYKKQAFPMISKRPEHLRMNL
From the text: as §1

The next test addresses PKCγ (Homo sapiens, UniProt P05129). As to the kind of experiment: Kinase profiling PKCγ. As to conditions: for remaining activity at 100 µM: read-out: residual kinase activity, PKCγ.
From the text: as §1

The target of the next test is STK33 (Homo sapiens, UniProt Q9BYT3). As to the kind of experiment: Kinase profiling STK33. As to conditions: for remaining activity at 100 µM: read-out: residual kinase activity, STK33.
Sequence of STK33 (Q9BYT3 whole entry, species assumed): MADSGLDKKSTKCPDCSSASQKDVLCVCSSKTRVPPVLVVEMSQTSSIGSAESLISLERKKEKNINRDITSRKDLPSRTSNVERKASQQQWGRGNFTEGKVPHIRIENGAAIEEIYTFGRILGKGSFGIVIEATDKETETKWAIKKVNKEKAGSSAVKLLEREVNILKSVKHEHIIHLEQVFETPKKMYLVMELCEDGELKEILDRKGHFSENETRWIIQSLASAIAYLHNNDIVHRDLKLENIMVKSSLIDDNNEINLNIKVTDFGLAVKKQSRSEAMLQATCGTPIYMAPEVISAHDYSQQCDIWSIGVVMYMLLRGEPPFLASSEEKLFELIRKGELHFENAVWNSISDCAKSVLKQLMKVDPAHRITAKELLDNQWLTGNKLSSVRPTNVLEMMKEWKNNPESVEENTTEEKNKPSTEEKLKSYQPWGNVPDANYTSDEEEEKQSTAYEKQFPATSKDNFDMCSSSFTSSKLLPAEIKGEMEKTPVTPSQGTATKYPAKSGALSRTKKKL
From the text: as §1

For another test, the target named is CAMKKb (Homo sapiens, UniProt Q96RR4). The experiment in a line: Kinase profiling CAMKKb. As to conditions: read-out: residual kinase activity, CAMKKb.
Sequence of CAMKKb (Q96RR4 whole entry, species assumed): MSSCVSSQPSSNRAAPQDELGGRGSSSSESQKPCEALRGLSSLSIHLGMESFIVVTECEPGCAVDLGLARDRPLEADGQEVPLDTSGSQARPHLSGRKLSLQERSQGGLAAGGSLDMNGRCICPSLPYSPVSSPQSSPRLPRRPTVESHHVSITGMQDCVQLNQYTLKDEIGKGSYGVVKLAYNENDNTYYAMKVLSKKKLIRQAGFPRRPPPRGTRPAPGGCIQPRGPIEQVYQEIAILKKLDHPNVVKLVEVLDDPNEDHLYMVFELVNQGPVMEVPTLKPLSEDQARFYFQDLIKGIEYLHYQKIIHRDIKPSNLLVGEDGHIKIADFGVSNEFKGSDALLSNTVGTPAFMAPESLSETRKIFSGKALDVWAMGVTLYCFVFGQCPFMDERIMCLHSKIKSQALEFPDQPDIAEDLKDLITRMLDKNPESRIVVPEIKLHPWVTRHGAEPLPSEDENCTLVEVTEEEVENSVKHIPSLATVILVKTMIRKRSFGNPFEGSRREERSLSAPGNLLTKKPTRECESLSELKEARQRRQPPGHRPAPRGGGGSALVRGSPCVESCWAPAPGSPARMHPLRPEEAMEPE
From the text: as §1

The target of a further test is T2, LKB1 (Homo sapiens, UniProt Q15831).
T2 sequence (Q15831 1-433): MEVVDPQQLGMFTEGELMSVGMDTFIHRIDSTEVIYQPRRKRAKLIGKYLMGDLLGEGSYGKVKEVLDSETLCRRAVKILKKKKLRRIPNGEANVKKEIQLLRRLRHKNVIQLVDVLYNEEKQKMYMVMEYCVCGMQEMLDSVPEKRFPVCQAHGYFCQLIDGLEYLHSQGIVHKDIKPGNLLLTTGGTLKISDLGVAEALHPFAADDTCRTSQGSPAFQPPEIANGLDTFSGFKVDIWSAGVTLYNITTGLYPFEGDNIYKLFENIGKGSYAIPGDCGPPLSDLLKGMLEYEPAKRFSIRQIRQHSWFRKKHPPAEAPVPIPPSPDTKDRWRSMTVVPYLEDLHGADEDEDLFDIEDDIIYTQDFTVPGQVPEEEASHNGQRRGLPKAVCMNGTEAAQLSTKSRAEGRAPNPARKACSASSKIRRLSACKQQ
T2 sequence (Q7RTN6 1-431 partner): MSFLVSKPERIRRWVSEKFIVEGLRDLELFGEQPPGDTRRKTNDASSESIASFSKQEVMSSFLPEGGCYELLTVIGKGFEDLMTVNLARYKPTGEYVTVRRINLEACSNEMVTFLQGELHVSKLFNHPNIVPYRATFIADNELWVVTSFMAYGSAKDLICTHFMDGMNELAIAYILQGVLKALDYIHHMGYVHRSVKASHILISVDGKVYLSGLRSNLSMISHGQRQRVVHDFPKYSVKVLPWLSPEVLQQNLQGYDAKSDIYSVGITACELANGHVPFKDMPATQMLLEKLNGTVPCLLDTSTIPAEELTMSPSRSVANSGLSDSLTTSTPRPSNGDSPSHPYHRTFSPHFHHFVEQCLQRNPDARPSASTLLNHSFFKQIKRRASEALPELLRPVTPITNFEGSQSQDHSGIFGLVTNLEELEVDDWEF
T2 sequence (Q9Y376 1-341 partner): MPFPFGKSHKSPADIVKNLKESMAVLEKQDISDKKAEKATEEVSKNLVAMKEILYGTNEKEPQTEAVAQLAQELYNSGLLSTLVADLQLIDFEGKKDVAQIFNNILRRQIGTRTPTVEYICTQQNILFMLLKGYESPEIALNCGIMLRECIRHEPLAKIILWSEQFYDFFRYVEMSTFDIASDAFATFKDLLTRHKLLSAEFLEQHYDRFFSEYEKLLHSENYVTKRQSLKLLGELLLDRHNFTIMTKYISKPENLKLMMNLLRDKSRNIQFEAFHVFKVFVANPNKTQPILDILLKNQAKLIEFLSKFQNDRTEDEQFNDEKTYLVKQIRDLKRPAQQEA
The experiment in a line: Kinase profiling LKB1. The following applies: read-out: residual kinase activity, LKB1.
From the text: as §1

The next test has as its target HIPK2 (Homo sapiens, UniProt Q9H2X6). As to the kind of experiment: Kinase profiling HIPK2. As to conditions: read-out: residual kinase activity, HIPK2.
From the text: as §1

Another test addresses PAK4 (Homo sapiens, UniProt O96013). As to the kind of experiment: Kinase profiling PAK4. The following applies: read-out: residual kinase activity, PAK4.
From the text: as §1

A further test concerns the target T3, MST2 (Homo sapiens, UniProt Q13188).
T3 sequence (Q13188 1-491): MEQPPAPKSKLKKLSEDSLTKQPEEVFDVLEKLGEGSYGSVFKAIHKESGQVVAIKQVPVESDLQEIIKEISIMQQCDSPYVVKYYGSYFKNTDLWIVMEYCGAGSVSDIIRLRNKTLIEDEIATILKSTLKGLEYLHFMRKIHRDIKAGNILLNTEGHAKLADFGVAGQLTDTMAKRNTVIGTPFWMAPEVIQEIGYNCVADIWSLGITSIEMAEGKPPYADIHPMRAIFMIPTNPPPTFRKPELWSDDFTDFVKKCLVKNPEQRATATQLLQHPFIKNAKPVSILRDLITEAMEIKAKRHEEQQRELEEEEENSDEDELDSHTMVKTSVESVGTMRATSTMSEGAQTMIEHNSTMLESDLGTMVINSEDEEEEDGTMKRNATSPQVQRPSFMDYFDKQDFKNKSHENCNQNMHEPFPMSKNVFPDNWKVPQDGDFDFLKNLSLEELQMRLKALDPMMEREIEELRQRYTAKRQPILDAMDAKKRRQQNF
The experiment in a line: Kinase profiling MST2. As to conditions: read-out: residual kinase activity, MST2.
From the text: as §1

The next test has as its target T4, TAK1 (Homo sapiens, UniProt O43318).
T4 sequence (O43318 1-303 limits assumed): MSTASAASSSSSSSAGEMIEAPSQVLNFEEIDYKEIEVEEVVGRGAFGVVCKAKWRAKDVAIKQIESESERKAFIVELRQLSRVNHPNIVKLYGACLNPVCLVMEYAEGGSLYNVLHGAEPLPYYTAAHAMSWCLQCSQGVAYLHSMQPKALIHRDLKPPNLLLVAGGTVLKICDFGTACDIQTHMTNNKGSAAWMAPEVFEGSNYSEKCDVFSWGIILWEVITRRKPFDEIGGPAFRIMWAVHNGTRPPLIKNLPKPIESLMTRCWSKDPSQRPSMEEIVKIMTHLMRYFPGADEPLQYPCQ
T4 sequence (Q15750 437-504 partner limits assumed): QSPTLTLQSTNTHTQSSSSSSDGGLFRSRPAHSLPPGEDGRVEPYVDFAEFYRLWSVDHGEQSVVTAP
As to the kind of experiment: Kinase profiling TAK1. As to conditions: read-out: residual kinase activity, TAK1.
From the text: as §1

Where [1] appears, read: 100 micromolar inhibitor concentration, 100 is no change.

Like-named read-outs stand apart in the source and are kept apart here.

Sequence of RSK2 (P51812 whole entry, species assumed): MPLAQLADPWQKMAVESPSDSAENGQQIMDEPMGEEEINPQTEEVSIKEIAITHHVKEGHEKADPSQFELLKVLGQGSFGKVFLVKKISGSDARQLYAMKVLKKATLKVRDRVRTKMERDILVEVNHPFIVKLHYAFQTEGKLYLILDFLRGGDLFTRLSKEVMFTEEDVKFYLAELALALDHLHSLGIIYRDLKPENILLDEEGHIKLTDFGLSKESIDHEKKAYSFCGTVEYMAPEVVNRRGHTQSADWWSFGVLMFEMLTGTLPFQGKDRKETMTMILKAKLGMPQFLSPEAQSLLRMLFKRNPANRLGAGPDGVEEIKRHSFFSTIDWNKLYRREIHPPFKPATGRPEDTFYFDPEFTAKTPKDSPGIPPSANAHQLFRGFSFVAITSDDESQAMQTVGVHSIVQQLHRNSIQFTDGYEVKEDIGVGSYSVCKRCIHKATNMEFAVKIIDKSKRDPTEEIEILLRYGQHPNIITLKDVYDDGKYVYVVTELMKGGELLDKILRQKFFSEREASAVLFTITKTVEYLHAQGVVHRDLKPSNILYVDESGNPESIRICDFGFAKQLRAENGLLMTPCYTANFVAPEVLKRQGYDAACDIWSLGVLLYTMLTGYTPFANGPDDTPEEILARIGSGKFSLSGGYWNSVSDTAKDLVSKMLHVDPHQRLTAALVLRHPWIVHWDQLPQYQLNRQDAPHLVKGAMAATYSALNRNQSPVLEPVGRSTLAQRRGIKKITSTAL
Sequence of PAK4 (O96013 whole entry, species assumed): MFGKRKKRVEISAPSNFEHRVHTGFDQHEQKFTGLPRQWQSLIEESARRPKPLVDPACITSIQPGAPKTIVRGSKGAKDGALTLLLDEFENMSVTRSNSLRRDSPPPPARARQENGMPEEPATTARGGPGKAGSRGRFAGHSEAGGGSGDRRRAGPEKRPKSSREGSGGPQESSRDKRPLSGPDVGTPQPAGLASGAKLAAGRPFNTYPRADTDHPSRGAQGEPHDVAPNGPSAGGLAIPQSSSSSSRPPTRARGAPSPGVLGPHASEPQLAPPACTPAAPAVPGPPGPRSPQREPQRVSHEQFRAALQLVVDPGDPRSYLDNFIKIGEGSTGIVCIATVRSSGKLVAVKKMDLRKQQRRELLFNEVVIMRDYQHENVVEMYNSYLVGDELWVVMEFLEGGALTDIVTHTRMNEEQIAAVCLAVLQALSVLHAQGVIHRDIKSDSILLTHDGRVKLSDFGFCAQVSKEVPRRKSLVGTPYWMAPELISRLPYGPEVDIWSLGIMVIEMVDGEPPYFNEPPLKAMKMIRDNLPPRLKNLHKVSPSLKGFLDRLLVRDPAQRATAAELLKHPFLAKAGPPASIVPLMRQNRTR
Sequence of HIPK2 (Q9H2X6 whole entry, species assumed): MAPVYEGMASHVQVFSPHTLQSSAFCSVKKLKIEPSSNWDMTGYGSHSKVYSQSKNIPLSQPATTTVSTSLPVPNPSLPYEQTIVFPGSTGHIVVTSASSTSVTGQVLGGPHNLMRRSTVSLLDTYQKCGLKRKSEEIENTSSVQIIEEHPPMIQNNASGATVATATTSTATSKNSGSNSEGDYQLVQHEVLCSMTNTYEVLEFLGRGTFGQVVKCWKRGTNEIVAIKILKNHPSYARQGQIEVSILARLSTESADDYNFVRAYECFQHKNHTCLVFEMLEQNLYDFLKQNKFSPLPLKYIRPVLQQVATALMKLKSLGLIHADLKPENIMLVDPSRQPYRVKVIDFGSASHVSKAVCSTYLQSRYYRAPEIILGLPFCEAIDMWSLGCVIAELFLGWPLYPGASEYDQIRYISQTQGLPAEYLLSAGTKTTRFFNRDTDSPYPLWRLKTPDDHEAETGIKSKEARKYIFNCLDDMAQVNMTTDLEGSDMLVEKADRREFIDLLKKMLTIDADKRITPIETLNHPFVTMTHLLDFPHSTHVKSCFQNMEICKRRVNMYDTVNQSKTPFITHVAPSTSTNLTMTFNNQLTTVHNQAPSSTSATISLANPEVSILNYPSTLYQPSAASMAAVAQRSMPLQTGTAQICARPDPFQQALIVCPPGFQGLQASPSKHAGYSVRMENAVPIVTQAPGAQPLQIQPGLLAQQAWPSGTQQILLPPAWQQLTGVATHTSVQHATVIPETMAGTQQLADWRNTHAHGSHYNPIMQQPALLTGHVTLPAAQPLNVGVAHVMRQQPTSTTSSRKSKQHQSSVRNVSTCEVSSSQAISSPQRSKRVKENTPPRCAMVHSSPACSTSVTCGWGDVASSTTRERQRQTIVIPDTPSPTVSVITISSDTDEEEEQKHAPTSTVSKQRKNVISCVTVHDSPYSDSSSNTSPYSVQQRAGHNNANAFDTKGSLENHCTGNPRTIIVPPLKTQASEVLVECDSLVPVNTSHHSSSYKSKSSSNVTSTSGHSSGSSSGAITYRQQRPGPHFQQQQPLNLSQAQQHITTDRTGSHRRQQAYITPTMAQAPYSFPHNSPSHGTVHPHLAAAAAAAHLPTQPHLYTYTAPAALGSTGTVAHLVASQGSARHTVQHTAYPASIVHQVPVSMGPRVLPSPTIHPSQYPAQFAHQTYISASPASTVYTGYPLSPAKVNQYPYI

For `CC(=O)Nc1nc2cc(O)ccc2s1` [Compound 01-66, N-(5-hydroxybenzo[d]thiazol-2-yl)acetamide], the remaining activity at 100 µM on MKK6 came out at 70%; at RSK2, 66%; at S6K1, 54%; at PKCγ, 99%; at STK33, 52%; on CAMKKb it was 44%. Further, the remaining activity at 100 µM at LKB1 stood at 38%; on HIPK2, 20%; at PAK4, 66%; on MST2, 69%; at TAK1 it was 30%.

For the molecule `CC(=O)Nc1nc2ccc(O)cc2s1` [Compound 01-71], the remaining activity at 100 µM at MKK6 (setting [1]) is 78%; on RSK2 (setting [1]), 48%; at S6K1 (setting [1]), 23%; at PKCγ (setting [1]), 76%; on STK33 (setting [1]) it was 41%; at CAMKKb (setting [1]), 57%. Further, the remaining activity at 100 µM on LKB1 (setting [1]) is 17%; on HIPK2 (setting [1]), 14%; at PAK4 (setting [1]) it was 51%; at MST2 (setting [1]), 56%; at TAK1 (setting [1]), 11%.

Regarding `CC(=O)Nc1cccc(C(=O)Nc2nc3ccc(O)cc3s2)c1` [Compound 03-58], the “residual kinase activity, MKK6” value at MKK6 (setting [1]) is reported as 103. Moreover, the “residual kinase activity, RSK2” value on RSK2 (setting [1]) is 51. Besides, on S6K1 (setting [1]), the “residual kinase activity, S6K1” value was determined as 9. For the same molecule, the “residual kinase activity, PKCγ” value on PKCγ (setting [1]) turned out to be 86. Further, the “residual kinase activity, STK33” value at STK33 (setting [1]) was 45.

In the case of `CC(=O)NC(C)C(=O)Nc1nc2ccc(C(F)(F)F)cc2s1` (stereo not shown) [Compound 03-80], the “residual kinase activity, MKK6” value on MKK6 (setting [1]) came to 115. For the same molecule, on RSK2 (setting [1]), the “residual kinase activity, RSK2” value is reported as 66. For the same molecule, the “residual kinase activity, S6K1” value on S6K1 (setting [1]) came to 97. Besides, the “residual kinase activity, PKCγ” value at PKCγ (setting [1]) was determined as 87. Besides, the “residual kinase activity, STK33” value on STK33 (setting [1]) is on record as 60.

Consider `CC(=O)Nc1ccccc1C(=O)Nc1nc2ccc(O)cc2s1` [Compound 08-39], for which the “residual kinase activity, MKK6” value on MKK6 (setting [1]) was found to be 96. For the same molecule, the “residual kinase activity, RSK2” value at RSK2 (setting [1]) is 2. Besides, the “residual kinase activity, S6K1” value on S6K1 (setting [1]) is listed as 12. Moreover, the “residual kinase activity, PKCγ” value on PKCγ (setting [1]) came to 44. Moreover, the “residual kinase activity, STK33” value on STK33 (setting [1]) turned out to be 61.
